Results published in US11020399B2, “Intermediates useful in the synthesis of compounds as modulators of protein kinases” (Rhizen Pharmaceuticals SA, priority 2011, dated 2021).

What was measured:
PI3kγ = PI3kγ (Homo sapiens, UniProt P48736); assay: Fluorescent (HTRF) determination of PI3 kinase enzyme activity, PI3Kγ; format: biochemical; conditions: for % inhibition (PI3kγ) 100 nM / inhibition at 0.1 µM: 100 nM (Examples 60-137); for inhibition at 0.3 µM: 300 nM (Examples 1-59)
Summary of the method: (§1)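 Human PI3K isoforms were preincubated with compound for 10 min at room temperature in 10 mM MgCl2, 5 mM DTT, 1.38 μM PIP2, then reacted 30 min after adding 400 μM ATP stock. PIP3 was read by HTRF (665/620 nm). Percent inhibition used blank and enzyme controls; single-point testing was at 1 uM for α/β and 0.3 or 0.1 uM for γ/δ.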

PI3kδ = PI3kδ (Homo sapiens, UniProt O00329); assay: Fluorescent (HTRF) determination of PI3 kinase enzyme activity, PI3Kδ; format: biochemical; conditions: for % inhibition (PI3kδ) 100 nM / inhibition at 0.1 µM: 100 nM (Examples 60-137); for % inhibition (PI3kδ) 100 nM: 0.1 µM; for inhibition at 0.3 µM: 300 nM (Examples 1-59)
Summary of the method: as §1

PI3kβ = PI3kβ (Homo sapiens, UniProt P42338); assay: Fluorescent (HTRF) determination of PI3 kinase enzyme activity, PI3Kβ; format: biochemical; conditions: 1 uM
Summary of the method: as §1

Sequence of PI3kγ (P48736 whole entry, canonical isoform): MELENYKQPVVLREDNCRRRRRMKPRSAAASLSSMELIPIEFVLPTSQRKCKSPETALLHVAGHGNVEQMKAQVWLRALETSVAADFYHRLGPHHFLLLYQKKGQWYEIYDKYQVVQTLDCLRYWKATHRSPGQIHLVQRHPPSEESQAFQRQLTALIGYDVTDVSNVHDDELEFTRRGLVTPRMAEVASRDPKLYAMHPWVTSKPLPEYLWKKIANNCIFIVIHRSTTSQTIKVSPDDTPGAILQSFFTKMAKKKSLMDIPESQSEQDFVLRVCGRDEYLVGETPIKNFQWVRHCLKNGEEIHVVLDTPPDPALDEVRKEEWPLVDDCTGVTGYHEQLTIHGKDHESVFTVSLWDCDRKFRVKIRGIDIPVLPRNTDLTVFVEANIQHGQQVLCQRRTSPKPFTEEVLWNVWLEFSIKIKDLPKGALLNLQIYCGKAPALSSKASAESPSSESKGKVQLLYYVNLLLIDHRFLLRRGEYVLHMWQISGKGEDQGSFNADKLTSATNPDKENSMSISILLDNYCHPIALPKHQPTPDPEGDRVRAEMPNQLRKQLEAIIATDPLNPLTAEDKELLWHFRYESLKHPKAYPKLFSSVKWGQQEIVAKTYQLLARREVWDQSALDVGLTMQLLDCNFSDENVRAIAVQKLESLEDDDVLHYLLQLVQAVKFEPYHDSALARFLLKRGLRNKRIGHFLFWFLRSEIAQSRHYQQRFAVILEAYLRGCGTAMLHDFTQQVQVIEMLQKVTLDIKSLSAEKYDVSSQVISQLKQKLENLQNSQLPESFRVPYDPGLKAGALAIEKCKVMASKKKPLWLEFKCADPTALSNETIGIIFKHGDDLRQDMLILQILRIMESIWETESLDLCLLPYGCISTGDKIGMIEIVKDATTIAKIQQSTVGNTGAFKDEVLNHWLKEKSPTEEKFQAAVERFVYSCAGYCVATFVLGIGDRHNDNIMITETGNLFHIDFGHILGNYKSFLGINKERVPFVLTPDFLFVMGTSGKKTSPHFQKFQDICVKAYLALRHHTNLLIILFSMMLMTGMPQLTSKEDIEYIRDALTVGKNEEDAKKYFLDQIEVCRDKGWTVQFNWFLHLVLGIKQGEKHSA
Sequence of PI3kδ (O00329 whole entry): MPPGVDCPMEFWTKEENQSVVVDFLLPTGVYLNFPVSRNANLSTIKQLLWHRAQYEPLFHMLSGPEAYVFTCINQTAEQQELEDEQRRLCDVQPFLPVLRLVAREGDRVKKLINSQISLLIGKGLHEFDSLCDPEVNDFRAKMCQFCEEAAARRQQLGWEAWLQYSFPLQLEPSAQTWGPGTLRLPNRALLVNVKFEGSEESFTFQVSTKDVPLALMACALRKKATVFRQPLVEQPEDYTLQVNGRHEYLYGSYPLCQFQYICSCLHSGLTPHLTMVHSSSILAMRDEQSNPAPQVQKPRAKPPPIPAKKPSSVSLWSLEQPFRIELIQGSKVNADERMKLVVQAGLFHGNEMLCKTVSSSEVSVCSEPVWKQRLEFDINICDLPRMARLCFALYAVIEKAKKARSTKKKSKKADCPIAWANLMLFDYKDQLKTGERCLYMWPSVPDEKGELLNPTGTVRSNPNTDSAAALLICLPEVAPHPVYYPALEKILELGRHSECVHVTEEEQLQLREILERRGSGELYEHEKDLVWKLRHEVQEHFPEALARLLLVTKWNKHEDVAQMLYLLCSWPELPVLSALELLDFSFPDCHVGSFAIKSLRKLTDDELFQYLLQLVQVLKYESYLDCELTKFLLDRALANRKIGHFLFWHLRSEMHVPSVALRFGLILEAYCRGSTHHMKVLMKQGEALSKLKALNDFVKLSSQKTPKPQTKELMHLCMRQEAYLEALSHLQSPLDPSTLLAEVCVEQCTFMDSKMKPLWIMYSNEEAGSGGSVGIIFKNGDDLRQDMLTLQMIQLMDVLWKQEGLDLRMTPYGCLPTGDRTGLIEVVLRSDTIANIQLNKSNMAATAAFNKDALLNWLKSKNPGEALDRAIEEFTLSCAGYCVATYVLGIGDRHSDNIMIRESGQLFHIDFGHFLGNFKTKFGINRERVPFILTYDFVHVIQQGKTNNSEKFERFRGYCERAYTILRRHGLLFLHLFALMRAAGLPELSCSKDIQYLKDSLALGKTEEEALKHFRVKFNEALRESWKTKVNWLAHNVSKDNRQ
Sequence of PI3kδ (P27986 whole entry partner): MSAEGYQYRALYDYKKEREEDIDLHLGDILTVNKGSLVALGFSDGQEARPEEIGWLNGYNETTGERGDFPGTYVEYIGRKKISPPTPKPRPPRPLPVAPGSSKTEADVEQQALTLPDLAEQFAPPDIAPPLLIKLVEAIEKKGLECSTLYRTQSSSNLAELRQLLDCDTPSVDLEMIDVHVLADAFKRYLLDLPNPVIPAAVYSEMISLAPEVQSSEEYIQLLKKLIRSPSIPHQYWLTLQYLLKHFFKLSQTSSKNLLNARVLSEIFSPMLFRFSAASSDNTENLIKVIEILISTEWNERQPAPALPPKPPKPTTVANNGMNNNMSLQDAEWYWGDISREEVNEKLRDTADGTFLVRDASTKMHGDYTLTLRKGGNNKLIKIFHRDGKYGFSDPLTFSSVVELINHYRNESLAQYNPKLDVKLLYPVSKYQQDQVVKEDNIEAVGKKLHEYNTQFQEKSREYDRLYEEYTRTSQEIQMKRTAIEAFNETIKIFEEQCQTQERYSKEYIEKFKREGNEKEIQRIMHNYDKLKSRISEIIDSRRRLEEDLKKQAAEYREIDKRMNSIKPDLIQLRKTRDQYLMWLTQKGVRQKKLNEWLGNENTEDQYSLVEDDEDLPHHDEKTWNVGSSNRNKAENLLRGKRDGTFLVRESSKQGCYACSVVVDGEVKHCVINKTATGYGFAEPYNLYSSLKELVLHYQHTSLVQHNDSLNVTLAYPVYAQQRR
Sequence of PI3kβ (P42338 whole entry): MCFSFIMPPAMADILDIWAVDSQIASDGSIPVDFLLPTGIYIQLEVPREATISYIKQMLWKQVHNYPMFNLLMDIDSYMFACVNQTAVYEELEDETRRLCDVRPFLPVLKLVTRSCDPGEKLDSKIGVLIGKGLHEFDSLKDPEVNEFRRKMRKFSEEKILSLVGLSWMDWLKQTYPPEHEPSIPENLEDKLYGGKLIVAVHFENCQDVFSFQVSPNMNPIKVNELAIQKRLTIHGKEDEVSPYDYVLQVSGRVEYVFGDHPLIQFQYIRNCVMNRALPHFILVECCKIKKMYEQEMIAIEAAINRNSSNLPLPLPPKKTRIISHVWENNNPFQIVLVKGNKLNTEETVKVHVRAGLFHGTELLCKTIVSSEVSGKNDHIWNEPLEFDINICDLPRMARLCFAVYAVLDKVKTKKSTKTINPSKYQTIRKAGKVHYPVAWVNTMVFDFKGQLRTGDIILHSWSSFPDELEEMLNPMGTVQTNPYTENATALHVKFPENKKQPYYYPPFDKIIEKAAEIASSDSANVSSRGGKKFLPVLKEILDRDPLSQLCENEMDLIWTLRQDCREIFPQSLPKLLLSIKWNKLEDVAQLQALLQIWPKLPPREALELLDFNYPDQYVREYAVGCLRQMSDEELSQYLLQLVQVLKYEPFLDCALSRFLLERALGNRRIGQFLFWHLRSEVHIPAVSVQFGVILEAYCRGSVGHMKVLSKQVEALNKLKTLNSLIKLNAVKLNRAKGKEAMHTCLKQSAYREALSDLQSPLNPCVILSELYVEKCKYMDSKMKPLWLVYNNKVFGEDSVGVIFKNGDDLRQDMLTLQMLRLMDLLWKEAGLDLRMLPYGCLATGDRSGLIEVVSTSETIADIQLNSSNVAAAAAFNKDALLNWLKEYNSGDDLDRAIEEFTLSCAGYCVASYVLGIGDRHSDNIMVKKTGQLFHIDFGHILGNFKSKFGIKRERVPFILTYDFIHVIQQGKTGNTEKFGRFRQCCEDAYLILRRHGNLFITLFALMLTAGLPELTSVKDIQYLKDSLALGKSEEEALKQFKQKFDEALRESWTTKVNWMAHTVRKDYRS
Sequence of PI3kβ (P27986 whole entry partner): as the sequence (P27986 whole entry partner) above

melting point	inhibition at 0.1 µM (PI3kγ)	inhibition at 0.1 µM (PI3kδ)	inhibition at 0.3 µM (PI3kγ)	inhibition at 0.3 µM (PI3kδ)	Compound	other results
136 to 138 °C					CC(C)Oc1ccc(-c2nn(C(C)c3oc4cccc(F)c4c(=O)c3-c3cccc(F)c3)c3ncnc(N4CCOCC4)c23)cc1F (racemic) [Example 116, (S)/(R)-5-fluoro-2-(1-(3-(3-fluoro-4-isopropoxyphenyl)-4-morpholino-1H-pyrazolo[3,4-d]pyrimidin-1-yl)ethyl)-3-(3-fluorophenyl)-4H-chromen-4-one]	% inhibition (PI3kγ) 100 nM (PI3kγ; 0.1 µM): D (D=0 to 25%); % inhibition (PI3kδ) 100 nM (PI3kδ): D (D=0 to 25%)
183 to 186 °C	25 to 50%	25 to 50%			C[C@H](Nc1nc(F)nc2[nH]cnc12)c1oc2cccc(F)c2c(=O)c1-c1cccc(F)c1 (racemic) [Example 136, (S)/(R)-5-fluoro-2-(1-(2-fluoro-9H-purin-6-ylamino)ethyl)-3-(3-fluorophenyl)-4H-chromen-4-one]	
198 to 200 °C	25 to 50%	25 to 50%			CC(c1oc2cccc(F)c2c(=O)c1-c1cccc(F)c1)n1cnc2c(N(C)C)ncnc21 (single isomer, unassigned) [Example 130]	inhibition at 1 µM (PI3kβ): 25 to 50%
186 to 189 °C	0 to 25%	25 to 50%			COc1nc(N[C@@H](C)c2oc3cccc(F)c3c(=O)c2-c2cccc(F)c2)c2nc[nH]c2n1 (single isomer, unassigned) [Example 134]	
219 to 222 °C	25 to 50%	25 to 50%			COc1nc(N[C@H](C)c2oc3cccc(F)c3c(=O)c2-c2cccc(F)c2)c2nc[nH]c2n1 (single isomer, unassigned) [Example 135]	
247 to 249 °C			25 to 50%	50 to 75%	CC(c1oc2cccc(F)c2c(=O)c1-c1cccc(F)c1)n1nc(-c2ccc(OC(F)(F)F)c(F)c2)c2c(N)ncnc21 (stereo not shown) [Example 45, 2-(1-(4-amino-3-(3-fluoro-4-(trifluoromethoxy)phenyl)-1H-pyrazolo[3,4-d]pyrimidin-1-yl)ethyl)-5-fluoro-3-(3-fluorophenyl)-4H-chromen-4-one]	
203 to 205 °C			0 to 25%	0 to 25%	CC(c1oc2cccc(F)c2c(=O)c1-c1cccc(F)c1)n1nc(N2CCCC2)c2c(N)ncnc21 (stereo not shown) [Example 47, 2-(1-(4-amino-3-(pyrrolidin-1-yl)-1H-pyrazolo[3,4-d]pyrimidin-1-yl)ethyl)-5-fluoro-3-(3-fluorophenyl)-4H-chromen-4-one]	
154 to 157 °C			75 to 100%	50 to 75%	CC(C)C(=O)Nc1ccc(-c2nn(C(C)c3oc4cccc(F)c4c(=O)c3-c3cccc(F)c3)c3ncnc(N)c23)cc1 (stereo not shown) [Example 48, N-(4-(4-amino-1-(1-(5-fluoro-3-(3-fluorophenyl)-4-oxo-4H-chromen-2-yl)ethyl)-1H-pyrazolo[3,4-d]pyrimidin-3-yl)phenyl)isobutyramide]	inhibition at 1 µM (PI3kβ): 25 to 50%; IC50 (PI3kγ): ≤ 50 nM
228 to 230 °C			50 to 75%	25 to 50%	CC(c1oc2cccc(F)c2c(=O)c1-c1cccc(F)c1)n1nc(-c2ccc(C3=NCCCO3)cc2)c2c(N)ncnc21 (stereo not shown) [Example 51, 2-(1-(4-amino-3-(4-(5,6-dihydro-4H-1,3-oxazin-2-yl)phenyl)-1H-pyrazolo[3,4-d]pyrimidin-1-yl)ethyl)-5-fluoro-3-(3-fluorophenyl)-4H-chromen-4-one]	
254 to 257 °C			50 to 75%	0 to 25%	CC(C)NC(=O)c1ccc(-c2nn(C(C)c3oc4cccc(F)c4c(=O)c3-c3cccc(F)c3)c3ncnc(N)c23)cc1F (stereo not shown) [Example 53, 4-(4-amino-1-(1-(5-fluoro-3-(3-fluorophenyl)-4-oxo-4H-chromen-2-yl)ethyl)-1H-pyrazolo[3,4-d]pyrimidin-3-yl)-2-fluoro-N-isopropylbenzamide]	
252 to 255 °C			50 to 75%	25 to 50%	CC(c1oc2cccc(F)c2c(=O)c1-c1cccc(F)c1)n1nc(-c2ccc(CNS(C)(=O)=O)cc2)c2c(N)ncnc21 (stereo not shown) [Example 55, N-(4-(4-amino-1-(1-(5-fluoro-3-(3-fluorophenyl)-4-oxo-4H-chromen-2-yl)ethyl)-1H-pyrazolo[3,4-d]pyrimidin-3-yl)benzyl)methanesulfonamide]	
225 to 228 °C			50 to 75%	0 to 25%	CC(c1oc2cccc(F)c2c(=O)c1-c1cccc(F)c1)n1nc(-c2ccc(S(=O)(=O)NC3CC3)cc2)c2c(N)ncnc21 (stereo not shown) [Example 57, 4-(4-amino-1-(1-(5-fluoro-3-(3-fluorophenyl)-4-oxo-4H-chromen-2-yl)ethyl)-1H-pyrazolo[3,4-d]pyrimidin-3-yl)-N-cyclopropylbenzenesulfonamide]	
232 to 235 °C	25 to 50%	0 to 25%			COc1c(C)cc(-c2nn(C(C)c3oc4cccc(F)c4c(=O)c3-c3cccc(F)c3)c3ncnc(N)c23)cc1C (stereo not shown) [Example 71, 2-(1-(4-amino-3-(4-methoxy-3,5-dimethylphenyl)-1H-pyrazolo[3,4-d]pyrimidin-1-yl)ethyl)-5-fluoro-3-(3-fluorophenyl)-4H-chromen-4-one]	
204 to 207 °C	25 to 50%	0 to 25%			COCc1ccc(-c2nn(C(C)c3oc4cccc(F)c4c(=O)c3-c3cccc(F)c3)c3ncnc(N)c23)cc1 (stereo not shown) [Example 72, 2-(1-(4-amino-3-(4-(methoxymethyl)phenyl)-1H-pyrazolo[3,4-d]pyrimidin-1-yl)ethyl)-5-fluoro-3-(3-fluorophenyl)-4H-chromen-4-one]	
317 to 320 °C	25 to 50%	25 to 50%			CC(c1oc2cccc(F)c2c(=O)c1-c1cccc(F)c1)n1nc(-c2ccc3nccn3c2)c2c(N)ncnc21 (stereo not shown) [Example 73, 2-(1-(4-amino-3-(imidazo[1,2-a]pyridin-6-yl)-1H-pyrazolo[3,4-d]pyrimidin-1-yl)ethyl)-5-fluoro-3-(3-fluorophenyl)-4H-chromen-4-one]	
252 to 255 °C	0 to 25%	25 to 50%			Cc1nc(C)c(-c2nn(C(C)c3oc4cccc(F)c4c(=O)c3-c3cccc(F)c3)c3ncnc(N)c23)s1 (stereo not shown) [Example 75, 2-(1-(4-amino-3-(2,4-dimethylthiazol-5-yl)-1H-pyrazolo[3,4-d]pyrimidin-1-yl)ethyl)-5-fluoro-3-(3-fluorophenyl)-4H-chromen-4-one]	
122 to 124 °C	75 to 100%	75 to 100%			CC(C)Oc1ccc(-c2nn(C(C)c3oc4cccc(F)c4c(=O)c3-c3cccc(F)c3)c3ncnc(N(C)C)c23)cc1F (stereo not shown) [Example 83, 2-(1-(4-(dimethylamino)-3-(3-fluoro-4-isopropoxyphenyl)-1H-pyrazolo[3,4-d]pyrimidin-1-yl)ethyl)-5-fluoro-3-(3-fluorophenyl)-4H-chromen-4-one]	IC50 (PI3kγ): ≤ 50 nM; IC50 (PI3kδ): ≤ 50 nM
193 to 196 °C					CNc1ncnc2c1c(-c1ccc(OC(C)C)c(F)c1)nn2C(C)c1oc2cccc(F)c2c(=O)c1-c1cccc(F)c1 (stereo not shown) [Example 84, 5-fluoro-2-(1-(3-(3-fluoro-4-isopropoxyphenyl)-4-(methylamino)-1H-pyrazolo[3,4-d]pyrimidin-1-yl)ethyl)-3-(3-fluorophenyl)-4H-chromen-4-one]	IC50 (PI3kγ): > 500 nM; % inhibition (PI3kγ) 100 nM (PI3kγ): C (C=>25 to 50%); IC50 (PI3kδ): ≤ 50 nM; % inhibition (PI3kδ) 100 nM (PI3kδ): B (B=>50 to 75%)
135 to 138 °C	25 to 50%	25 to 50%			CC(c1oc2cccc(F)c2c(=O)c1-c1cn[nH]c1)n1nc(-c2ccc(OC(F)F)c(F)c2)c2c(N)ncnc21 (stereo not shown) [Example 91, 2-(1-(4-amino-3-(4-(difluoromethoxy)-3-fluorophenyl)-1H-pyrazolo[3,4-d]pyrimidin-1-yl)ethyl)-5-fluoro-3-(1H-pyrazol-4-yl)-4H-chromen-4-one]	
227 to 229 °C	0 to 25%	0 to 25%			CC(C)Oc1ccc(-c2nn(C(C)c3oc4cccc(N5CCOCC5)c4c(=O)c3-c3cccc(F)c3)c3ncnc(N)c23)cc1F (stereo not shown) [Example 120, 2-(1-(4-amino-3-(3-fluoro-4-isopropoxyphenyl)-1H-pyrazolo[3,4-d]pyrimidin-1-yl)ethyl)-3-(3-fluorophenyl)-5-morpholino-4H-chromen-4-one]	
242 to 245 °C	0 to 25%	25 to 50%			CC(c1oc2cccc(F)c2c(=O)c1-c1cccc(F)c1)n1nc(-c2ccc3c(c2)C(=O)NC3)c2c(N)ncnc21 (stereo not shown) [Example 122, 6-(4-amino-1-(1-(5-fluoro-3-(3-fluorophenyl)-4-oxo-4H-chromen-2-yl)ethyl)-1H-pyrazolo[3,4-d]pyrimidin-3-yl)isoindolin-1-one]	
225 to 227 °C	25 to 50%	50 to 75%			CCOc1ccc(-c2nn(C(C)c3oc4cccc(F)c4c(=O)c3-c3cccc(F)c3)c3ncnc(N)c23)cc1C(F)(F)F (stereo not shown) [Example 132, 2-(1-(4-amino-3-(4-ethoxy-3-(trifluoromethyl)phenyl)-1H-pyrazolo[3,4-d]pyrimidin-1-yl)ethyl)-5-fluoro-3-(3-fluorophenyl)-4H-chromen-4-one]	
